Data: patent US20230372302A1 (priority 2019, published 2023)
Entries after “also recorded” stand apart in the source; their conditions may differ. Structures can show the parent of a compound that is named as a salt.

Key:
[1] = system: vocal cords and respiratory muscles of rats; conditions: rat, in vivo
rat = conditions: in vivo; cited from earlier work
neuromuscular blockade = conditions: human, in vivo; cited from earlier work
[2] = human, in vivo; cited from earlier work
[3] = target: T1, recombinant human VMAT2 transporters (Homo sapiens, UniProt Q05940); assay type: binding
T1 construct: expressed in transfected cells; host or cells: HEK-293
T1 sequence (Q05940 whole entry): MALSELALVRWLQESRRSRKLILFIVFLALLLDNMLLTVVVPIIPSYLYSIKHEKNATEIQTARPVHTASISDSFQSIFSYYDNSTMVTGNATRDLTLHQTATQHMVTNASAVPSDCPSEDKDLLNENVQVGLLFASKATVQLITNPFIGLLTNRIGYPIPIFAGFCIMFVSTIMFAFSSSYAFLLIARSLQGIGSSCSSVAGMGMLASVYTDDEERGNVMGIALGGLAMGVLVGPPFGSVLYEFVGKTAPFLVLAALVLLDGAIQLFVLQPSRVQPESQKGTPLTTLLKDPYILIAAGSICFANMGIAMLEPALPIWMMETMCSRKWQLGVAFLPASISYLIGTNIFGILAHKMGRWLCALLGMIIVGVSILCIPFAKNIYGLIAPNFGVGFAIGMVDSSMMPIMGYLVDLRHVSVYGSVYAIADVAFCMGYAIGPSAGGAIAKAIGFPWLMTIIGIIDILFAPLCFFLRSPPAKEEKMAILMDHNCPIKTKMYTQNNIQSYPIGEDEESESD

[4] = target: vesicular monoamine transporter-VMAT (Homo sapiens, UniProt Q05940); assay: cell-based
Sequence of vesicular monoamine transporter-VMAT (Q05940 whole entry): as above

[5] = target: T2, recombinant human alpha 1D adrenergic receptor (ADR1D) (Homo sapiens, UniProt P25100)
T2 sequence (P25100 1-572): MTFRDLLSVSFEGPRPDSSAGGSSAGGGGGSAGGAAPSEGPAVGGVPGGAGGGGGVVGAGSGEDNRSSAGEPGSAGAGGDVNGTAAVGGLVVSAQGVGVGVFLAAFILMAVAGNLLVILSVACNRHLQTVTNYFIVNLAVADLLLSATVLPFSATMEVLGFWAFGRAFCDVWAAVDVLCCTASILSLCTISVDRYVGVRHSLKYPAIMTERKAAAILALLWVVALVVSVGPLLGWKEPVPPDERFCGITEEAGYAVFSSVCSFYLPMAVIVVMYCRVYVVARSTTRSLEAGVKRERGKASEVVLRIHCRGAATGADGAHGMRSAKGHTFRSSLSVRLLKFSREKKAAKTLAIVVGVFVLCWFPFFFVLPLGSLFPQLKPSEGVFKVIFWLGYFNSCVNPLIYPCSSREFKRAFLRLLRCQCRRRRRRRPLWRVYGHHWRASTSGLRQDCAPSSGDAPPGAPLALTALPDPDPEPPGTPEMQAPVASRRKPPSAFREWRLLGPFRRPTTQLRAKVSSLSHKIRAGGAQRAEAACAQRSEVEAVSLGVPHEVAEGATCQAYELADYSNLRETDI

[6] = target: T3, α-1 adrenergic receptor 1A subtype (Homo sapiens, UniProt P35348); conditions: cited from earlier work
T3 sequence (P35348 1-466): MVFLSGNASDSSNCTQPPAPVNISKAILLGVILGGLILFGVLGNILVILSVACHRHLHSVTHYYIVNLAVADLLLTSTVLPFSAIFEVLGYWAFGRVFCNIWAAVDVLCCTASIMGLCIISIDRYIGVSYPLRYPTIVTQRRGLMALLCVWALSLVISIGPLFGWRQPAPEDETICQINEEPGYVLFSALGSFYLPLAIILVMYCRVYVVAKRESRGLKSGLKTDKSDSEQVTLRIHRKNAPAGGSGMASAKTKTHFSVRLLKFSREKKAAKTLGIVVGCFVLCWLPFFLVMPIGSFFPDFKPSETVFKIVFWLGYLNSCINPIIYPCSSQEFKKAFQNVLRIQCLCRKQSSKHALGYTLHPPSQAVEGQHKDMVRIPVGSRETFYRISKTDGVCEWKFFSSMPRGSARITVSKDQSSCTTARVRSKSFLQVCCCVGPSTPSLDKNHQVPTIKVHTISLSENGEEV

[7] = target: T2, recombinant human alpha 1D adrenergic receptor (ADR1D); assay: biochemical
[8] = target: T4, recombinant human alpha 1B adrenergic receptor (ADR1B) (Homo sapiens, UniProt P35368); assay: biochemical
T4 sequence (P35368 whole entry): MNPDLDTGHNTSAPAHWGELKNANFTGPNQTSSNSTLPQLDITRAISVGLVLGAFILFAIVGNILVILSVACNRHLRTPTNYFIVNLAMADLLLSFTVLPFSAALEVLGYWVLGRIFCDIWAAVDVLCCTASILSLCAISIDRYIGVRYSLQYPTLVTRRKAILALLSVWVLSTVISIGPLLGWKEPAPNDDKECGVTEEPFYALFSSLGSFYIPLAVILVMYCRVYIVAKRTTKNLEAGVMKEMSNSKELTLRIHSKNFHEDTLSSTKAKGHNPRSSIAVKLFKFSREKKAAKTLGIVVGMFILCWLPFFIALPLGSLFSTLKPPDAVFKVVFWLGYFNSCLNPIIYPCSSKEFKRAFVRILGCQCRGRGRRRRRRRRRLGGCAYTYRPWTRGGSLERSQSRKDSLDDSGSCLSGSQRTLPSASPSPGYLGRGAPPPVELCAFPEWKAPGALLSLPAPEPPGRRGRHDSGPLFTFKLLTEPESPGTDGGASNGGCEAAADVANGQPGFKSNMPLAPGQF

[9] = system: T5, alpha 1 adrenergic receptor subtypes (1A, 1B, 1D); assay type: binding, human
T5 construct: rows headed: BA at all subtypes; other: subnanomolar range; Ki at alpha 1 adrenergic receptor subtypes; other: result in words

[10] = system: VC and laryngeal muscles/laryngospasm; conditions: rat, in vivo; cited from earlier work
[11] = target: T4, recombinant human alpha 1B adrenergic receptor (ADR1B)
[12] = system: alpha 1 subtypes (1A, 1B, 1D); assay type: cell-based, human
[13] = target: recombinant human alpha 1A adrenergic receptor (ADR1A) (Homo sapiens, UniProt P35348); assay type: binding

For `COC(=O)[C@H]1[C@@H](OC(=O)c2ccccc2)C[C@@H]2CC[C@H]1N2C` [cocaine], the “vocal cord closure and chest wall rigidity effect (specific to F/FA)” value [1] is listed as “not demonstrated” and the LD85 (rat) is listed as 70 mg/kg.
For `C[N+](C)(C)CCOC(=O)CCC(=O)OCC[N+](C)(C)C` [succinylcholine], the “onset of effect given intramuscularly” value (neuromuscular blockade) is given as 2 to 3 min, the “persistence of maximum blockade” value (neuromuscular blockade) is given as “about 2 minutes” and the “recovery time after maximum blockade” value (neuromuscular blockade) is given as 4 to 6 min. The “time until neuromuscular blockade develops” value (neuromuscular blockade) was “about 1 minute”.
For `C[C@H](Cc1cc2c(c(C(N)=O)c1)N(CCCO)CC2)NCCOc1ccccc1OCC(F)(F)F` [SILODOSIN, (3-Hydroxypropyl)-5-[(2R)-2-({2-[2-(2,2,2trifluoroethoxy)phenoxy]ethyl}amino)propyl]-2,3-d hydro-1H-indole-7-carboxamide], the “dizziness and orthostatic hypotension” value [2] is listed as 3% and the subjects with syncope [2] is listed as 1/897.
For `CN[C@@H](C)Cc1ccccc1` [methamphetamine], the “vocal cord closure and chest wall rigidity effect (specific to F/FA)” value [1] was “not demonstrated”, the “binding to VMAT2 transporter” value [3] was “bind to recombinant human VMAT2 transporters” and the IC50 [4] was roughly 4 µM. For the same compound, the LD90 (rat) was 100 mg/kg.
For `NC[C@H](O)c1ccc(O)c(O)c1` [norepinephrine], the “binding at the 1D subtype over 1A and 1B receptor subtypes, respectively” value [5] was 9-20 fold.
In the case of `CCOc1ccccc1OCCN[C@H](C)Cc1ccc(OC)c(S(N)(=O)=O)c1` [tamsulosin, (−)-(R)-5-[2-[[2-(o-Ethoxyphenoxy)ethyl]amino]propyl]-2-methoxybenzenesulfon-amide, monohydrochloride], the “binding affinity at the 1A subtype greater over other α-1 antagonists” value [6] is listed as 12-30 times, the Ki [7] is listed as less than 0.001 µM and the Ki [8] is listed as less than 0.001 µM.
In the case of `C=CC[N+]1([C@H]2C[C@H]3[C@@H]4CC[C@H]5C[C@H](O)[C@@H](N6CCOCC6)C[C@]5(C)[C@H]4CC[C@]3(C)[C@H]2OC(C)=O)CCCC1` [rocuronium bromide, 1-[17β-(acetyloxy)-3α-hydroxy-2β-(4-morpholinyl)-5α-androstan-16β-yl]-1-(2-propenyl)pyrrolidinium bromide], the “time to completed intubation in most patients” value (neuromuscular blockade) is listed as no more than 2 min, the “time to excellent or good intubating conditions in most patients” value (neuromuscular blockade) is listed as “less than 2 minutes” and the “time to maximum blockade in most patients” value (neuromuscular blockade) is listed as “less than 3 minutes”. For the same compound, the “time to neuromuscular block sufficient for intubation (80% block or greater), median (range)” value (neuromuscular blockade) was 1 (0.4-6) minute(s).
With `CC(=O)Oc1ccc2c3c1O[C@H]1[C@@H](OC(C)=O)C=C[C@H]4[C@@H](C2)N(C)CC[C@@]341` [heroin] the “vocal cord closure and chest wall rigidity effect (specific to F/FA)” value [1] was “not demonstrated”.
For `C=CCN1CC[C@]23c4c5ccc(O)c4O[C@H]2C(=O)CC[C@@]3(O)[C@H]1C5.Cl` [naloxone, 17-Allyl-4,5α-epoxy-3,14-dihydroxymorphinan-6-one hydrochloride], the “binding at alpha 1 adrenergic receptor subtypes” value [9] is listed as “neither morphine (MSO4) or naloxone had any notable or relevant binding activity” and the “impact on the effects of F on VC and laryngeal muscles/laryngospasm” value [10] is listed as “minimal impact”.
In the case of `CN1CC[C@]23c4c5ccc(O)c4O[C@H]2[C@@H](O)C=C[C@H]3[C@H]1C5` [morphine], the “binding at alpha 1 adrenergic receptor subtypes” value [9] is reported as “not morphine; also recorded: neither morphine (MSO4) or naloxone had any notable or relevant binding activity”, the “binding at alpha 1B (bind all alpha 1 subtypes)” value [11] is reported as “not morphine or naloxone bind” and the “act as antagonists at all alpha 1 subtypes” value [12] is reported as “not morphine”. The “binding at alpha 1D (bind all alpha 1 subtypes)” value [5] was “not morphine or naloxone bind” and the “binding at alpha 1A (bind all alpha 1 subtypes)” value [13] was “not morphine or naloxone bind”.
